Entries after “also recorded” stand apart in the source; their conditions may differ.
Tested on: acute arterial hypotension, caused by prazosin
Test: Acute arterial hypotension caused by prazosin (Table 3)
Format: in vivo, cats
Conditions: for AP / HF / Respiratory contraction frequency: 5 mg/kg i.v. after prazosin 1 mg/kg
Procedure: It was of interest to study the influence of S-ethylisothiouronium diethylphosphate the in case of hypotension caused by the injection of a known α1-adreno blocker, namely prazosin. Prazosin was injected singly intravenously at a dose of 1 mg/kg.

Q: For CCSC(=N)N [S-ethylisothiouronium diethylphosphate], which AP (2 min) is on record?
A: 135.0 ± 5.6 mm Hg

Q: What about the HF (2 min) of the same compound?
A: 152.4 ± 9.4 per min.

Q: What about the Respiratory contraction frequency (2 min) of the same compound?
A: 14.6 ± 3.9 min⁻¹

Q: And the AP (15 min)?
A: 118.8 ± 10.3 mm Hg

Q: And the HF (15 min)?
A: 146.4 ± 5.6 per min.

Q: And the Respiratory contraction frequency (15 min)?
A: 12.4 ± 3.0 min⁻¹

Q: What about the AP (30 min) of the same compound?
A: 116.3 ± 4.8 mm Hg

Q: What about the HF (30 min) of the same compound?
A: 144.0 ± 5.0 per min.

Q: What about the Respiratory contraction frequency (30 min) of the same compound?
A: 11.8 ± 2.3 min⁻¹

Q: And the AP (60 min)?
A: 110.0 ± 7.4 mm Hg

Q: And the HF (60 min)?
A: 135.6 ± 7.0 per min.

Q: What about the Respiratory contraction frequency (60 min) of the same compound?
A: 11.0 ± 1.0 min⁻¹

Q: What about the AP increase (5 mg/kg i.v. after prazosin, 2nd minute) of the same compound?
A: 29 mm Hg

Q: What about the “AP above the level on the 5th minute after blocker” value (5 mg/kg i.v. after prazosin, 15th minute) of the same compound?
A: 11.8%

Q: What about the “AP above the level on the 5th minute after blocker” value (5 mg/kg i.v. after prazosin, 30th minute) of the same compound?
A: 9.4%

Q: What about the “Effect under α1-adreno blockade in words” value (after prazosin) of the same compound?
A: Statistically significant changes of HR and respiratory movement frequency were not observed; also recorded: increases AP also on the background of α1-adreno blockers though with a lower duration than without them; also recorded: retain its activity in conditions of alpha-adrenergic blockade

Reference: patent US6160008A, “Pharmaceutical compositions comprising S-alkylisothiouronium derivatives” (priority 1996, dated 2000)
